Assay results: US10689459B2, “Treatment of breast cancer brain metastases” (THE GENERAL HOSPITAL CORPORATION, priority 2014, dated 2020)

B1: NRG-1: neuregulin 1, HER3 ligand; secreted growth factor (protein)
chain: TSHLVKCAEKEKTFCVNGGECFMVKDLSNPSRYLCKCPNEFTGDRCQNYVMASFYKHLGIEFMEAEELYQK

What was measured:
[1] = system: HER2- or PI3K-driven breast tumors growing in the MFP (BT474, MDA-MB-361, T-47D); test: Mammary fat pad (MFP) xenograft tumor growth; assay type: in vivo, nude mice; settings: COMPOUND A 30 or 50 mg/kg once a day p.o.; FIG. 1A
From the text: (§1) 5-(2,6-di-morpholin-4-yl-pyrimidin-4-yl)-4-trifluoromethyl-pyridin-2-ylamine (referred to herein as “COMPOUND A”) is a potent and specific pan-Class I PI3K inhibitor with activity against breast cancer cells bearing HER2-amplification as well as oncogenic PI3K catalytic subunit alpha (PIK3CA) mutations. We compared the efficacy of COMPOUND A on identical human HER2-positive breast cancer cells growing in the MFP or in the brain parenchyma of nude mice. The three breast cancer cell lines examined included HER2-amplified BT474, HER2-amplified and PIK3CA mutant (E545K) MDA-MB-361, and PIK3CA mutant (H1047R) T-47D cell lines. […] Furthermore, the concentration of COMPOUND A in breast tumors growing at both sites, as well as in the plasma of these mice was identical.
(§2) BT474, MDA-MB-361, and T-47D cells were transduced with an expression cassette encoding Gluc and GFP separated by an internal ribosomal entry site, using a lentiviral vector. GFP-positive cells were sorted with a FACSAria cell sorter (BD Biosciences). […]
(§3) Tumor size was measured twice a week by measuring the activity of secreted Gluc in the blood. […] Blood was transferred to an opaque 96-well plate, and Gluc activity was measured using coelenterazine (CTZ; Nanolight) as a substrate and a plate luminometer (Centro XS LB960; Berthold Technologies). […]

BT474-Gluc-BR cells = test: In vitro sensitivity of cancer cells isolated from a brain metastatic tumor; assay type: cell-based, human; settings: BT474-Gluc-BR cultured for a week in vitro
From the text: We began our investigation into the resistance of breast cancer BM to PI3K inhibition by asking if breast cancer cells require constant influence from the brain microenvironment. We isolated breast cancer cells after dissociation of a brain metastatic tumor (termed BT474-Gluc-BR). After cultured for a week in vitro, the vast majority of viable cells were cancer cells, as identified by GFP. […] Instead, breast cancer cells must receive continuous support from the brain microenvironment in order to maintain resistance. […]
The xCELLigence system (Acea Biosciences Inc.) was used to assess the cell index of T-47D, BT474 and MDA-MB-361 cells. xCELLigence measures electrical impedance across micro-electrodes integrated at the bottom of tissue culture E-plates to provide quantitative information about the biological status of cells, including cell number, morphology and viability. […] Cells were monitored every 15 m for a period of up to 24 h via the incorporated sensor electrode arrays of the E-Plate 96. […] Electric impedance was measured in 1 h intervals after addition of drug until the end of the experiment. Cell index value, which is a dimensionless parameter derived as a relative change in measured electrical impedance to represent numbers of attached cells, was calculated from the electric impedance and plotted using the RTCA software provided by the vendor. […]

[2] = system: human breast cancer cells growing in the brain parenchyma (BT474, MDA-MB-361, T-47D); test: Brain metastatic xenograft tumor growth (three cell lines, Example 1); assay type: in vivo, nude mice; settings: COMPOUND A 30 or 50 mg/kg once a day p.o.; FIG. 1B
From the text: as §1, §2, §3

[3] = Compound A concentration measurement in tumor and plasma (LC-MS/MS); assay type: in vivo, nude mice; settings: tumor lysate by LC-MS/MS; comparison between sites
Experimental: Tumor samples were collected, weighed and lysed in Lysing Matrix D tube (MP Biomedicals) in RIPA buffer (Cell Signaling Technologies (CST)) at fixed weight/volume ratio. The samples were centrifuged at 13,000 rpm and 4° C. in Micro centrifuge for 10 min. Supernatant was collected from the lysate and stored at −80° C. The COMPOUND A concentration in tumor lysate was analyzed by LC-MS/MS at Inventiv Health Clinical Lab, Inc. It was then normalized by tumor weight-lysis buffer ratio to yield COMPOUND A exposure (ng/mL) in tumor tissue.

p-AKT = p-AKT inhibition in tumor tissue (BM versus MFP tumors); assay type: in vivo, nude mice; settings: tumor tissue collected two hours after the final dose
From the text: as §1

[4] = system: three HER2-positive breast cancer cell lines; test: Resistance analysis of secreted growth factors (CellTiter-Glo rescue); assay type: cell-based, human; settings: unbiased analysis of 220 growth factors; 96 h incubation
From the text: A collection of cDNA constructs representing secreted and single pass transmembrane proteins was identified (as described previously described^56) and purchased from Invitrogen Ultimate ORF collection. (The library is maintained by DMP BioArchive.) pCDNA-DEST40 (Invitrogen) was the plasmid vector for all clones, and all clone inserts were confirmed by full sequencing. For this study a collection of 338 cDNA constructs, representing 220 unique secreted and single pass transmembrane proteins, was used to identify rescued ligands in the present of each compound treatment—each cDNA construct was reverse-transfected using HEK293T/17. […] CellTiter-Glo assay was then used for conducting end-point read out. Following plate to plate normalization of the raw CTG reading for triplicates, the rescue % value for each secreted protein was calculated using the following formula: Rescue %=[Median (drug+supe)−Median (drug)]/[Median (DMSO)−Median (drug)]. The statistical probability score of the Rescue % value was also calculated: p-value=Chidist [Z(drug+supe)^2, 1], where Z(drug+supe)=[Median (drug+supe)−Median (drug)]/Std(drug+supe), where drug+supe stands for the individual sample that were treated with individual supernatant that was expected to contain one unique secreted protein. […]

Molecule	tumor response to treatment, tumors growing in the MFP [1]	in vitro sensitivity of brain microenvironment-exposed cells versus parental cells (BT474-Gluc-BR cells)	tumor response to treatment, established brain metastatic lesions [2]	concentration in breast tumors growing at both sites (MFP, brain) and in plasma [3]	level of p-AKT inhibition in BM compared with MFP tumors (p-AKT)	induction of resistance to COMPOUND A [4]
Nc1cc(C(F)(F)F)c(-c2cc(N3CCOCC3)nc(N3CCOCC3)n2)cn1 [COMPOUND A, 5-(2,6-di-morpholin-4-yl-pyrimidin-4-yl)-4-trifluoromethyl-pyridin-2-ylamine]	regression	similarly sensitive	resistant to treatment	identical	comparable level of p-AKT inhibition	–
B1	–	–	–	–	–	most potent inducers of resistance
